Experimental data published in publication PMC12049818, “Identification of NUV-244 as a PNPLA3 I148M degrading small molecule” (iScience, 2025).
Residue numbers refer to the chain shown, from its start.

Experiments:
[1] = target: T1, PNPLA3 I148M-tagRFP (Homo sapiens, UniProt Q9NST1, I148M); experiment: Time-lapse imaging of PNPLA3 I148M-tagRFP on lipid droplets in Huh7 cells; assay type: cell-based; conditions: 1μM or 5μM; Huh7
T1 construct: host or cells: Huh7
T1 sequence (Q9NST1 1-481 I148M): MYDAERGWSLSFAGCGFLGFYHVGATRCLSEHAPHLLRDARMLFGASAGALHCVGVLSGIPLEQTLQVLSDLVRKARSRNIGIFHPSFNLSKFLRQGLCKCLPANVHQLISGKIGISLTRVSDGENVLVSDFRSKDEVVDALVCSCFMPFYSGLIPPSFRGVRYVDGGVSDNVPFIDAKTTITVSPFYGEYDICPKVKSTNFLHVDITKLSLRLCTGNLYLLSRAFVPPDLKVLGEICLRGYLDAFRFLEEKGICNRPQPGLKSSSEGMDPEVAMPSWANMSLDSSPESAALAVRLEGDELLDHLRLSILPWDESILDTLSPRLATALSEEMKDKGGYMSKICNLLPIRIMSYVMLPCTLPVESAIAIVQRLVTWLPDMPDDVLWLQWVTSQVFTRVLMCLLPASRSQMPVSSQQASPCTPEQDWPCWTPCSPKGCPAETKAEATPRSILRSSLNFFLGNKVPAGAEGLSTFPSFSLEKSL
Method: To evaluate the kinetics of NUV-244 mediated reduction and degradation of PNPLA3 I148M-tagRFP, we performed time-lapse studies to follow PNPLA3 I148M-tagRFP over time (Figures 5A and 5B). 1μM or 5μM NUV-244 leads to rapid onset of reduction of PNPLA3 I148M-tagRFP on lipid droplets with half maximum effect reached after approximately 2h. To evaluate if PNPLA3 I148M-tagRFP degradation is 26S proteasome dependent, 1μM Bortezomib was co-incubated with NUV-244. Proteasome inhibition prevents PNPLA3 I148M-tagRFP reduction from lipid droplets (Figures 5A and 5B). […] A recent paper identified the E3 ligase responsible for the turnover of endogenous PNPLA3, the ER associated E3 ligase BFAR.[18]
Huh7 cells expressing PNPLA3 I148M-tagRFP were seeded at 4000 cells/well in 30 μL media in 384-well imaging plates (Revvity, PhenoPlate) and stored in a 37°C incubator with 5% CO2 and 95% humidity overnight. Cells were then incubated with Bodipy diluted in growth medium (38nM final concentration) for 1h at 37°C with 5% CO2 and 95% humidity. Cells were treated with DMSO control, 1 μM or 5 μM NUV-244, with or without 1 μM Bortezomib or 5 μM MLN7243. Cells were imaged every 15 minutes over a 20-hour period using an Opera Phenix confocal spinning disc microscope system (Revvity) with a 20x water objective at 561 nm (tagRFP) and 488 nm (BODIPY). Images were analyzed using Harmony software. PNPLA3 I148M-tagRFP intensity on lipid droplets was quantified and compared between treatments.

[2] = tested on: LX-2 cells; experiment: Incucyte growth curves, LX-2; assay type: cell-based, human; conditions: 1μM or 5μM; compared to DMSO
Method: Huh7, Huh7 PNPLA3 I148M, Huh7 PNPLA3, Hep3b and LX-2 cells were seeded at a concentration of 1000 cells/well in 60 μl of growth medium on 384-well microtiter plates (Revvity, Waltham, MA, USA, PhenoPlate 384-well microplate, #6057308) and stored in a 37°C incubator with 5% CO2 and 95% humidity overnight. Next day cells were treated with DMSO as control (1% final concentration) or compound (1μM or 5μM final concentration) and cell density was recorded in the Incucyte® life cell imager (Sartorius, Göttingen, Germany) every 4 hours over a period of 5 days. Growth curves were generated by monitoring confluence over time. Proliferative capacity of PNPLA3 I148M-expressing cells was compared to control cells, and the restoration of proliferative fitness was analyzed.

[3] = target: T2, PNPLA3 (Homo sapiens, UniProt Q9NST1); experiment: Huh7 untagged PNPLA3 immunofluorescence on lipid droplets; assay type: cell-based; conditions: anti-PNPLA3 IF; representative curve, Figure 3E
T2 construct: host or cells: Huh7
T2 sequence (Q9NST1 1-481): T1 sequence (Q9NST1 1-481 I148M) with M148I
Method: Even though C-terminal tagging is reported not to interfere with PNPLA3 localization,[20] we established an assay to exclude the possibility that C-terminal tagging of PNPLA3 with tagRFP could alter PNPLA3 response to NUV-244 on lipid droplets. For this we generated Huh7 cell lines that express untagged variants of PNPLA3 I148M or PNPLA3 WT and visualized PNPLA3 on lipid droplets by immunofluorescence (Figures 3C, 3D, and S3A).
Cells were fixed with 4% paraformaldehyde for 15 minutes at room temperature. Cells were blocked with 0.2 M glycine, 0.1 mg/mL saponin, and 30 mg/mL bovine serum albumin (BSA) (all Sigma Aldrich) in PBS for 1 hour. Cells were washed 1x with washing buffer (0,1 mg/ml saponin + 1 mg/ml Bovine serum albumin) using a Blue Washer (Blue Cat Bio). Mouse anti-human ADPN (PNPLA3, C-8, #sc-390252, Santa Cruz) and rabbit anti-human PNPLA2 (Sigma Aldrich, #HPA055173-25UL) primary antibodies and appropriate secondary antibodies conjugated with Alexa-Fluor 647 (Jackson ImmunoResearch) were used. […]
Images were acquired by an Opera Phenix confocal spinning disc microscope system (Revvity, Waltham, MA, USA) with a 20x or 40x water objective at 405 nm (Hoechst), 488 nm (BODIPY) and 647 nm. Quantification was carried out with the Harmony (Revvity, Waltham, MA, USA) or MetaXpress software (Molecular Devices). […]

- time to half maximum effect of reduction of PNPLA3 I148M-tagRFP on lipid droplets [1]: approximately 2 h
- EC50 [3]: 341 nM
Structure (SMILES): Cc1cccc(Cc2nc(C)c(C(=O)Nc3cc(O)ccc3Cl)s2)c1 [NUV-244]
- effect on proliferative capacity, LX-2 [2]: no effects
